Source: US11945806B2, “Stabilization of amyloidogenic immunoglobulin light chains” (The Scripps Research Institute, priority 2019, dated 2024)

target: WIL-FL (Homo sapiens, UniProt P01721); assay: Unlabeled LC Protease Sensitivity Assay (proteinase K); assay type: biochemical; conditions: small molecule 10 μM, WIL-FL 5 μM, proteinase K 50 nM, 2 hours at 37° C.
Procedure, shortened: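 Compound at 10 μM (1% DMSO) is mixed with 5 μM WIL-FL and 50 nM proteinase K in PBS pH 7.4/0.02% Pluronic F-127, 37 °C, 2 h, then quenched with PMSF. Remaining protein measured by SEC-UPLC peak area at 280 nm and expressed as fold protection relative to vehicle and no-protease controls.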

Protection (fold protection of LC from protease)	Compound
C (C ≥ 0.6)	CCN(CC)c1ccc2c(C)c(CCN3C(=O)NC4(CCN(c5ncnc6[nH]ncc56)CC4)C3=O)c(=O)oc2c1 [Compound 192, 3-(2-(7-(diethylamino)-4-methyl-2-oxo-2H-chromen-3-yl)ethyl)-8-(1H-pyrazolo[3,4-d]pyrimidin-4-yl)-1,3,8-triazaspiro[4.5]decane-2,4-dione]
A (A < 0.3))	Cc1cc(=O)oc2cc(N(C)CCCF)ccc12 [Compound 258, 7-((3-fluoropropyl)(methyl)amino)-4-methyl-2H-chromen-2-one]
A (A < 0.3))	CCN(CC)c1ccc2c(C)c(CCOC(=O)NCCc3cccnc3)c(=O)oc2c1 [Compound 83, 2-(7-(diethylamino)-4-methyl-2-oxo-2H-chromen-3-yl)ethyl (2-(pyridin-3-yl)ethyl)carbamate]
A (A < 0.3))	CCN(CC)c1ccc(NC(=O)CN2C(=O)CNC2=O)cc1 [Compound 150, N-(4-(diethylamino)phenyl)-2-(2,5-dioxoimidazolidin-1-yl)acetamide]
A (A < 0.3))	CCN(CC)c1ccc2c(C)c(CCNC(=O)NCc3ccccn3)c(=O)oc2c1 [Compound 276, 1-(2-(7-(diethylamino)-4-methyl-2-oxo-2H-chromen-3-yl)ethyl)-3-(pyridin-2-ylmethyl)urea]
B (3 ≤ B < 0.6)	CCN(CC)c1ccc2c(C)c(CCN3C(=O)NC4(CCN(C(=O)c5cnccn5)CC4)C3=O)c(=O)oc2c1 [Compound 212, 3-(2-(7-(diethylamino)-4-methyl-2-oxo-2H-chromen-3-yl)ethyl)-8-(pyrazine-2-carbonyl)-1,3,8-triazaspiro[4.5]decane-2,4-dione]
B (3 ≤ B < 0.6)	CCN(CC)c1ccc2c(C)c(CCNC(=O)NCc3cccc(OCC(=O)O)c3)c(=O)oc2c1 [Compound 311, 2-(3-((3-(2-(7-(diethylamino)-4-methyl-2-oxo-2H-chromen-3-yl)ethyl)ureido)methyl)phenoxy)acetic acid]
A (A < 0.3))	Cc1cc(=O)oc2cc(C(=O)Nc3ccc4scnc4c3)ccc12 [Compound 239, N-(benzo[d]thiazol-5-yl)-4-methyl-2-oxo-2H-chromene-7-carboxamide]
C (C ≥ 0.6)	CCN(CC)c1ccc2c(C)c(CCOC(=O)NCc3cccc(-c4cccnn4)c3)c(=O)oc2c1 [Compound 166, 2-(7-(diethylamino)-4-methyl-2-oxo-2H-chromen-3-yl)ethyl (3-(pyridazin-3-yl)benzyl)carbamate]
A (A < 0.3))	CCN(CC)c1ccc2c(C)c(CCN3C(=O)NC4(CCN(c5ncc(C(F)(F)F)cn5)C4)C3=O)c(=O)oc2c1 (stereo not drawn) [Compound 195, 3-(2-(7-(diethylamino)-4-methyl-2-oxo-2H-chromen-3-yl)ethyl)-7-(5-(trifluoromethyl)pyrimidin-2-yl)-1,3,7-triazaspiro[4.4]nonane-2,4-dione]
A (A < 0.3))	CCN(CC)c1ccc2c(C)c(CCN3C(=O)NC4(CCN(C(=O)c5ccc[nH]c5=O)CC4)C3=O)c(=O)oc2c1 [Compound 178, 3-(2-(7-(diethylamino)-4-methyl-2-oxo-2H-chromen-3-yl)ethyl)-8-(2-oxo-1,2-dihydropyridine-3-carbonyl)-1,3,8-triazaspiro[4.5]decane-2,4-dione]
A (A < 0.3))	CCN(CC)c1ccc2c(C)c(CCOC(=O)N(C)CCc3cccnc3)c(=O)oc2c1 [Compound 102, 2-(7-(diethylamino)-4-methyl-2-oxo-2H-chromen-3-yl)ethyl methyl(2-(pyridin-3-yl)ethyl)carbamate]
A (A < 0.3))	C=CCCN(C)c1ccc2c(C)cc(=O)oc2c1 [Compound 256, 7-(but-3-en-1-yl(methyl)amino)-4-methyl-2H-chromen-2-one]
A (A < 0.3))	Cc1cc(=O)oc2cc(OC(C)c3ccc(F)cc3)ccc12 (stereo not drawn) [Compound 44, 7-(1-(4-fluorophenyl)ethoxy)-4-methyl-2H-chromen-2-one]
A (A < 0.3))	Cc1cc(=O)oc2cc(NCc3ccccc3)ccc12 [Compound 28, 7-(benzylamino)-4-methyl-2H-chromen-2-one]
B (3 ≤ B < 0.6)	CCN(CC)c1ccc2c(C)c(CCN3C(=O)NC4(CCN(C(=O)c5cnccn5)C4)C3=O)c(=O)oc2c1 (stereo not drawn) [Compound 211, 3-(2-(7-(diethylamino)-4-methyl-2-oxo-2H-chromen-3-yl)ethyl)-7-(pyrazine-2-carbonyl)-1,3,7-triazaspiro[4.4]nonane-2,4-dione]

Protection (fold protection of LC from protease)	Compound
A (A < 0.3))	C#CCN(CC1CC1)c1ccc2c(C)cc(=O)oc2c1 [Compound 262, 7-((cyclopropylmethyl)(prop-2-yn-1-yl)amino)-4-methyl-2H-chromen-2-one]
C (C ≥ 0.6)	CCN(CC)c1ccc2c(C)c(CCN3C(=O)NC4(CCN(c5ncnc6c5cnn6C)CC4)C3=O)c(=O)oc2c1 [Compound 216, 3-(2-(7-(diethylamino)-4-methyl-2-oxo-2H-chromen-3-yl)ethyl)-8-(1-methyl-1H-pyrazolo[3,4-d]pyrimidin-4-yl)-1,3,8-triazaspiro[4.5]decane-2,4-dione]
A (A < 0.3))	CCN(CC)c1ccc2c(C)c(CC(=O)NCCCCc3ccccc3)c(=O)oc2c1 [Compound 57, 2-(7-(diethylamino)-4-methyl-2-oxo-2H-chromen-3-yl)-N-(4-phenylbutyl)acetamide]
C (C ≥ 0.6)	CCN(CC)c1ccc2c(C)c(CCN3C(=O)NC4(CCN(c5nccn6cnnc56)CC4)C3=O)c(=O)oc2c1 [Compound 217, 8-([1,2,4]triazolo[4,3-a]pyrazin-8-yl)-3-(2-(7-(diethylamino)-4-methyl-2-oxo-2H-chromen-3-yl)ethyl)-1,3,8-triazaspiro[4.5]decane-2,4-dione]
C (C ≥ 0.6)	CCN(CC)c1ccc2c(C)c(CCNC(=O)NCc3cccnc3)c(=O)oc2c1 [Compound 98, 1-(2-(7-(diethylamino)-4-methyl-2-oxo-2H-chromen-3-yl)ethyl)-3-(pyridin-3-ylmethyl)urea]
B (3 ≤ B < 0.6)	CCN(CC)c1ccc2c(C)c(CCNC(=O)NC)c(=O)oc2c1 [Compound 131, 1-(2-(7-(diethylamino)-4-methyl-2-oxo-2H-chromen-3-yl)ethyl)-3-methylurea]
B (3 ≤ B < 0.6)	CCN(CC)c1ccc2c(C)c(CCNC(=O)NCCc3cnc[nH]3)c(=O)oc2c1 [Compound 281, 1-(2-(1H-imidazol-5-yl)ethyl)-3-(2-(7-(diethylamino)-4-methyl-2-oxo-2H-chromen-3-yl)ethyl)urea]
B (3 ≤ B < 0.6)	CCN(CC)c1ccc2c(C)c(CCOC(=O)NCC3CCCNC3)c(=O)oc2c1 (stereo not drawn) [Compound 146, 2-(7-(diethylamino)-4-methyl-2-oxo-2H-chromen-3-yl)ethyl (piperidin-3-ylmethyl)carbamate]
C (C ≥ 0.6)	CCN(CC)c1ccc2c(C)c(CCN3C(=O)NC4(CCN(C(=O)c5cnc[nH]5)C4)C3=O)c(=O)oc2c1 (stereo not drawn) [Compound 180, 3-(2-(7-(diethylamino)-4-methyl-2-oxo-2H-chromen-3-yl)ethyl)-7-(1H-imidazole-4-carbonyl)-1,3,7-triazaspiro[4.4]nonane-2,4-dione]
B (3 ≤ B < 0.6)	CCN(CC)c1ccc2c(C)c(CCNC(=O)NCc3cc4ccccc4cn3)c(=O)oc2c1 [Compound 295, 1-(2-(7-(diethylamino)-4-methyl-2-oxo-2H-chromen-3-yl)ethyl)-3-(isoquinolin-3-ylmethyl)urea]
C (C ≥ 0.6)	CCN(CC)c1ccc2c(C)c(CCOC(=O)NCc3ccc4nc[nH]c4c3)c(=O)oc2c1 [Compound 142, 2-(7-(diethylamino)-4-methyl-2-oxo-2H-chromen-3-yl)ethyl ((1H-benzo[d]imidazol-6-yl)methyl)carbamate]
B (3 ≤ B < 0.6)	CCN(CC)c1ccc2c(C)c(CCOC(=O)NCc3cncc(NC(C)=O)c3)c(=O)oc2c1 [Compound 128, 2-(7-(diethylamino)-4-methyl-2-oxo-2H-chromen-3-yl)ethyl ((5-acetamidopyridin-3-yl)methyl)carbamate]
B (3 ≤ B < 0.6)	CCN(CC)c1ccc2c(C)c(CCOC(=O)N3CC4(C3)CS(=O)(=O)C4)c(=O)oc2c1 [Compound 110, 2-(7-(diethylamino)-4-methyl-2-oxo-2H-chromen-3-yl)ethyl 2-thia-6-azaspiro[3.3]heptane-6-carboxylate 2,2-dioxide]
C (C ≥ 0.6)	CCN(CC)c1ccc2c(C)c(CCN3CC4(CCN(c5ncnc6[nH]ncc56)CC4)NC3=O)c(=O)oc2c1 [Compound 222, 3-(2-(7-(diethylamino)-4-methyl-2-oxo-2H-chromen-3-yl)ethyl)-8-(1H-pyrazolo[3,4-d]pyrimidin-4-yl)-1,3,8-triazaspiro[4.5]decan-2-one]
C (C ≥ 0.6)	CCN(CC)c1ccc2c(C)c(CCN3C(=O)NC4(CCN(S(=O)(=O)c5cccnc5)C4)C3=O)c(=O)oc2c1 (stereo not drawn) [Compound 202, 3-(2-(7-(diethylamino)-4-methyl-2-oxo-2H-chromen-3-yl)ethyl)-7-(pyridin-3-ylsulfonyl)-1,3,7-triazaspiro[4.4]nonane-2,4-dione]

target: WIL-FL* (Homo sapiens, UniProt P01721, K101C, form not given); assay: Protease-coupled fluorescence polarization (PCFP) assay with proteinase K; conditions: Primary screen, n=1, 6.75 μM compound

PK activity (%)	Compound
2.58 (Primary screen) %	O=c1ccc2ccccc2o1 [Compound 21]
2.27 (Primary screen) %	Cc1cc(=O)oc2cc(O)ccc12 [Compound 19]
